Values after ≈ are worked out from the molar mass of the structure shown.
Key:
E. faecalis VanB (Van^R) = experiment: Broth microdilution MIC (NCCLS); assay type: cell-based; details: Enterococcus faecalis
In short: (§1)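 Endpoint: lowest concentration preventing visible or OD650-detected growth. Conditions: Mueller-Hinton broth, serial 2-fold compound dilutions, 5×10^5 CFU/mL, 35° C for 24 h. Inoculum counts were checked by plating on TSA.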

E. faecium ATCC 35667 = experiment: Broth microdilution MIC (NCCLS); assay type: cell-based; details: Enterococcus faecium, ATCC35667
In short: as §1

E. faecium VanA (Van^R) = experiment: Broth microdilution MIC (NCCLS); assay type: cell-based; details: Enterococcus faecium
In short: as §1

P. aeruginosa ATCC 27853 = experiment: Broth microdilution MIC (NCCLS); assay type: cell-based; details: Pseudomonas aeruginosa, ATCC27853
In short: (§2)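 MIC = lowest drug concentration with no bacterial growth, read at 650 nm and visually after 24 h at 35° C. Assay run in MHB per NCCLS, inoculum 5×10^5 CFU/mL, compounds serially diluted 2-fold in plate.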

[1] = system: S. aureus 76 (Meth^R)(lac^+); experiment: Broth microdilution MIC (NCCLS); assay type: cell-based; details: Staphylococcus aureus
In short: as §1

[2] = system: S. aureus ATCC 13709 (Meth^S); experiment: Broth microdilution MIC (NCCLS); assay type: cell-based; details: Staphylococcus aureus, ATCC13709, S. aureus ATCC 13709 (Meth^S); read-out: MIC
In short: as §1

S. aureus ATCC 29213 = experiment: Broth microdilution MIC (NCCLS); assay type: cell-based; details: Staphylococcus aureus, ATCC29213; S. aureus ATCC 29213; Mueller-Hinton broth, 24 h at 35° C.; read-out: MIC
In short: as §1

[3] = system: S. aureus PC1 (Meth^S)(lac^+); experiment: Broth microdilution MIC (NCCLS); assay type: cell-based; details: Staphylococcus aureus
In short: as §1

[4] = system: S. aureus Spain #356 (Meth^R); experiment: Broth microdilution MIC (NCCLS); assay type: cell-based; details: Staphylococcus aureus, 24 h
In short: as §1

[5] = system: S. haemolyticus 05 (Meth^R); experiment: Broth microdilution MIC (NCCLS); assay type: cell-based; details: Staphylococcus haemolyticus
In short: as §1

[6] = system: S. aureus ATCC 13709 (Smith diffuse); experiment: Murine lethal bacteremic peritonitis (septicemia) efficacy; assay type: in vivo, mice; details: for responders at 0.312 mg/kg: dose 0.312 mg/kg s.c. at 0 and 2 h post-challenge; for responders at 0.625 mg/kg: dose 0.625 mg/kg s.c. at 0 and 2 h post-challenge; for responders at 1.25 mg/kg: dose 1.25 mg/kg s.c. at 0 and 2 h post-challenge; for responders at 2.5 mg/kg: dose 2.5 mg/kg s.c. at 0 and 2 h post-challenge; for ED50: ATCC13709, mice, S. aureus ATCC 13709 i.p., s.c. at 0 and 2 h post-challenge, probit method; for Efficacy in murine septicemia % survival: dose 5 mg/kg s.c. at 0 and 2 h post-challenge
Method: 10 mice/group were injected intraperitoneally with 2.98×10^7 cfu S. aureus ATCC 13709 (Smith diffuse) and treated at 0 and 2 hrs post-challenge with serial two-fold doses of new cephalosporin antibiotic, imipenem and vancomycin subcutaneously in order to determine the ED50. Male Swiss-Webster mice weighing originally 24.2-26.1 g were obtained from Charles Rivers Labs, Hollister, Calif. Mice were housed 10 per cage and given free access to water and mouse chow.
Staphylococcus aureus ATCC 13709 (Smith diffuse) was grown overnight at 37° C. in Brain-heart Infusion broth (BHIB). The following morning, it was subcultured to fresh BHIB and incubated for 4-5 h at 37° C. The log-phase growth cells were washed once with physiological saline and adjusted to the desired concentration by correlation of absorbency at OD 600 nm with predetermined plate counts (NCCLS, 1994). The cell suspension was mixed with an equal volume of sterile 14% hog-gastric mucin (2). Inoculum was kept in an ice bath until used (<1 h).
Mice were challenged via an injection of 0.5 mL bacterial suspension intraperitoneally. The bacterial challenge was 2.98×10^7 cfu/mouse.
Imipenem (Primaxin IV; Lot 7294A), vancomycin (Vancocin; Lot 8MU60W), and new cephalosporin antibiotic were prepared by serial two-fold dilutions to concentrations of 0.078-0.005 mg/mL, 1.2-0.075 mg/mL, 0.3-0.02 mg/mL, 0.3-0.02 mg/mL and 0.3-0.02 mg/mL respectively in sterile water (1). All antibiotics were administered subcutaneously in 0.1 mL volumes at 0 and 2 hours post-challenge. Concentrations of all compounds are based on the weight of the bioactive ingredients.
The 50% effective dose (ED50) was calculated by the probit method (3) utilizing a program entitled Probit (Nycomed-Salutar).

E. coli ATCC25992 = experiment: Broth microdilution MIC (NCCLS); assay type: cell-based; details: Escherichia coli
In short: as §2

E. faecalis ATCC 29212 = experiment: Broth microdilution MIC (NCCLS); assay type: cell-based; details: Enterococcus faecalis, ATCC29212
In short: as §1

E. faecium A491 (Amp^R) = experiment: Broth microdilution MIC (NCCLS); assay type: cell-based; details: Enterococcus faecium
In short: as §1

[7] = system: S. aureus ATCC 33593 (Meth^R); experiment: Broth microdilution MIC (NCCLS); assay type: cell-based; details: Staphylococcus aureus, ATCC33593
In short: as §1

[8] = system: S. aureus Col (Meth^R)(lac^−); experiment: Broth microdilution MIC (NCCLS); assay type: cell-based; details: Staphylococcus aureus
In short: as §1

[9] = Staphylococcus aureus, ATCC13709, sc, read-out: Efficacy in murine septicemia % survival

| Structure (SMILES) | MIC (E. faecalis VanB (Van^R)) | MIC (E. faecium ATCC 35667) | MIC (E. faecium VanA (Van^R)) | MIC (P. aeruginosa ATCC 27853) | MIC [1] | MIC [2] | MIC (S. aureus ATCC 29213) | MIC [3] | MIC [4] | MIC [5] | responders at 0.312 mg/kg [6, 9] | responders at 0.625 mg/kg [6, 9] | responders at 1.25 mg/kg [6, 9] | responders at 2.5 mg/kg [6, 9] | ED50 ([6]; Staphylococcus aureus) | MIC [8] | Efficacy in murine septicemia % survival [6] | further results |
| --- | --- | --- | --- | --- | --- | --- | --- | --- | --- | --- | --- | --- | --- | --- | --- | --- | --- | --- |
| NCCSCc1nc(N)sc1SC1=C(C(=O)O)N2C(=O)[C@@H](NC(=O)/C(=N\O)c3nc(N)sc3Cl)[C@H]2SC1 [Cmpd 3, (7R)-7-[(Z)-2-(2-amino-5-chlorothiazol-4-yl)-2-(hydroxyimino)acetamido]-3-[4-(2-aminoethylthiomethyl)-2-amino-1,3-thiazol-5-ylthio]-3-cephem-4-carboxylic acid] | 0.25 µg/mL (≈ 0.401 µM) | 1 µg/mL (≈ 1.6 µM) | 8 µg/mL (≈ 12.8 µM) | 4 µg/mL (≈ 6.42 µM) | 1 µg/mL (≈ 1.6 µM) | 0.13 µg/mL (≈ 0.209 µM) | 0.25 µg/mL (≈ 0.401 µM) | 0.25 µg/mL (≈ 0.401 µM) | 1 µg/mL (≈ 1.6 µM) | 1 µg/mL (≈ 1.6 µM) | 50% | 90% | 90% | 100% | 0.39 mg/kg | – | – | responders at 0.078 mg/kg ([6]; Staphylococcus aureus, ATCC13709, sc, dose 0.078 mg/kg s.c. at 0 and 2 h post-challenge, read-out: Efficacy in murine septicemia % survival): 30%; responders at 0.165 mg/kg ([6]; Staphylococcus aureus, ATCC13709, sc, dose 0.165 mg/kg s.c. at 0 and 2 h post-challenge, read-out: Efficacy in murine septicemia % survival): 40% |
| NCCSCc1nc(SCCN)sc1SC1=C(C(=O)O)N2C(=O)[C@@H](NC(=O)/C(=N\O)c3nc(N)sc3Cl)[C@H]2SC1 [Cmpd 11, (7R)-7-[(Z)-2-(2-amino-5-chlorothiazol-4-yl)-2-(hydroxyimino)acetamido]-3-[4-(2-aminoethylthiomethyl)-2-aminoethylthio-1,3-thiazol-5-ylthio]-3-cephem-4-carboxylic acid] | 0.06 µg/mL (≈ 0.0878 µM) | 0.5 µg/mL (≈ 0.732 µM) | 4 µg/mL (≈ 5.85 µM) | 2 µg/mL (≈ 2.93 µM) | 0.5 µg/mL (≈ 0.732 µM) | 0.13 µg/mL (≈ 0.19 µM) | 0.06 µg/mL (≈ 0.0878 µM) | 0.13 µg/mL (≈ 0.19 µM) | 0.5 µg/mL (≈ 0.732 µM) | 0.5 µg/mL (≈ 0.732 µM) | – | – | – | – | – | 0.5 µg/mL (≈ 0.732 µM) | – | MIC (E. coli ATCC25992): 2 µg/mL (≈ 2.93 µM); MIC (E. faecalis ATCC 29212): 0.06 µg/mL (≈ 0.0878 µM); MIC (E. faecium A491 (Amp^R)): 4 µg/mL (≈ 5.85 µM); MIC [7]: 0.5 µg/mL (≈ 0.732 µM) |
| NCCSCc1ncccc1SC1=C(C(=O)O)N2C(=O)[C@@H](NC(=O)/C(=N\O)c3nc(N)sc3Cl)[C@H]2SC1 [Cmpd 13, (7R)-7-[(Z)-2-(2-amino-5-chlorothiazol-4-yl)-2-(hydroxyimino)acetamido]-3-[2-(2-aminoethylthiomethyl)pyrid-3-ylthio]-3-cephem-4-carboxylic acid] | – | – | – | – | – | – | 0.25 µg/mL (≈ 0.415 µM) | 0.25 µg/mL (≈ 0.415 µM) | – | – | – | 100% | 100% | 100% | – | 0.5 µg/mL (≈ 0.83 µM) | 5/100% | – |
| N=C(N)NCCSCc1ncccc1SC1=C(C(=O)O)N2C(=O)[C@@H](NC(=O)/C(=N\O)c3nsc(N)n3)[C@H]2SC1 [Cmpd 14, (7R)-7-[(Z)-2-(5-amino-1,2,4-thiadiazol-3-yl)-2-(hydroxyimino)acetamido]-3-[2-(2-guanidinoethylthiomethyl)pyrid-3-ylthio]-3-cephem-4-carboxylic acid] | 0.25 µg/mL (≈ 0.409 µM) | – | – | – | – | – | – | – | – | – | 90% | 100% | 100% | 100% | < 0.31 mg/kg | – | 5/100% | – |
| NCCSCc1ncccc1SC1=C(C(=O)O)N2C(=O)[C@@H](NC(=O)/C(=N\O)c3nsc(N)n3)[C@H]2SC1 [Cmpd 17, (7R)-7-[(Z)-2-(5-amino-1,2,4-thiadiazol-3-yl)-2-(hydroxyimino)acetamido]-3-[2-(2-aminoethylthiomethyl)pyrid-3-ylthio]-3-cephem-4-carboxylic acid] | – | – | – | – | – | 0.25 µg/mL (≈ 0.44 µM) | 0.25 µg/mL (≈ 0.44 µM) | 0.25 µg/mL (≈ 0.44 µM) | – | – | – | – | – | – | 0.39 mg/kg | – | – | responders at 0.12 mg/kg ([6]; Staphylococcus aureus, ATCC13709, sc, dose 0.12 mg/kg s.c. at 0 and 2 h post-challenge, read-out: Efficacy in murine septicemia % survival): 10%; responders at 0.25 mg/kg ([6]; Staphylococcus aureus, ATCC13709, sc, dose 0.25 mg/kg s.c. at 0 and 2 h post-challenge, read-out: Efficacy in murine septicemia % survival): 20%; responders at 0.5 mg/kg ([6]; Staphylococcus aureus, ATCC13709, sc, dose 0.5 mg/kg s.c. at 0 and 2 h post-challenge, read-out: Efficacy in murine septicemia % survival): 50%; responders at 1 mg/kg ([6]; Staphylococcus aureus, ATCC13709, sc, dose 1.0 mg/kg s.c. at 0 and 2 h post-challenge, read-out: Efficacy in murine septicemia % survival): 100%; responders at 2 mg/kg ([6]; Staphylococcus aureus, ATCC13709, sc, dose 2.0 mg/kg s.c. at 0 and 2 h post-challenge, read-out: Efficacy in murine septicemia % survival): 100% |
| NCCSCc1ccncc1SC1=C(C(=O)O)N2C(=O)[C@@H](NC(=O)/C(=N\O)c3nc(N)sc3Cl)[C@H]2SC1 [Cmpd 21, (7R)-7-[(Z)-2-(2-amino-5-chlorothiazol-4-yl)-2-(hydroxyimino)acetamido]-3-[4-(2-aminoethylthiomethyl)pyrid-3-ylthio]-3-cephem-4-carboxylic acid] | – | – | – | – | – | – | – | 0.25 µg/mL (≈ 0.415 µM) | – | – | 0% | 0% | 70% | 80% | 0.79 mg/kg | – | – | – |
| NCCSCc1ncsc1SC1=C(C(=O)O)N2C(=O)[C@@H](NC(=O)/C(=N\O)c3cccc(N)n3)[C@H]2SC1 [Cmpd 23, (7R)-7-[(Z)-2-(2-aminopyrid-6-yl)-2-(hydroxyimino)acetamido]-3-[4-(2-aminoethylthiomethyl)-1,3-thiazol-5-ylthio]-3-cephem-4-carboxylic acid] | 0.5 µg/mL (≈ 0.881 µM) | 2 µg/mL (≈ 3.52 µM) | 2 µg/mL (≈ 3.52 µM) | > 32 µg/mL | 2 µg/mL (≈ 3.52 µM) | 0.06 µg/mL (≈ 0.106 µM) | 0.13 µg/mL (≈ 0.229 µM) | 0.13 µg/mL (≈ 0.229 µM) | 2 µg/mL (≈ 3.52 µM) | 4 µg/mL (≈ 7.05 µM) | 40% | – | 100% | 100% | 0.39 mg/kg | 1 µg/mL (≈ 1.76 µM) | 5/100% | MIC (E. coli ATCC25992): 16 µg/mL (≈ 28.2 µM); MIC (E. faecalis ATCC 29212): 0.25 µg/mL (≈ 0.44 µM); MIC [7]: 1 µg/mL (≈ 1.76 µM) |

— patent US6723716B1, “7-acylamino-3-heteroarylthio-3-cephem carboxylic acid antibiotics and prodrugs thereof” (Essential Therapeutics, Inc., priority 1999, dated 2004)
